Consider 4 compounds from patent US20230167132A1, “FORMS AND COMPOSITIONS OF INHIBITORS OF PLASMA KALLIKREIN” (Takeda Pharmaceutical Company Limited, priority 2020, published 2023).

SMILES strings stand for the structures. Values joined by “and” are separate entries in the source; they are usually repeats but may differ in a detail not shown here. Equal values may be shown once. “Also recorded” adds a separate entry of the source. Read-outs that look alike come from different tables or passages of the source.

A short description of data set [1]: Solubility of Compound 1 in various solvents. In kind it is physicochemical. How it is done: Solubility of >10 mg/mL was only observed in DMSO, NMP and MeOH:DCM 1:3 at 50° C.
The target in data set [2] is plasma kallikrein (Homo sapiens, UniProt P03952). The conditions noted are these: in vitro kallikrein kinase assay, reported in the '129 publication; cited from earlier work.
A short description of data set [3]: Intrinsic Dissolution Rate (IDR), Sirius inForm. In kind it is physicochemical. As to conditions: for IDR Sector 1 average (pH 2.0) / IDR Sector 1 pH 2.0: pH 2.0, 37° C.; for IDR Sector 1 pH 2.0: individual runs; for sector 1 IDR compared to free base form Compound 1 Form 1 / other forms: pH 2.0, comparison in words; for XRPD Analysis Post Dissolution: solid form of disc after IDR analysis. The protocol:
About 40 mg of the sample was compressed in a 6 mm disc recess, under 100 kg for 2 minutes, with greaseproof paper on the compression base, to form nondisintegrating discs. The discs were then plugged with a bung so that only one surface was exposed to the media during analysis and transferred to the Sirius inForm dissolution apparatus. Analysis was performed at 37° C. in 40 mL media (36 mL ISA water, 4 mL 0.1 M Acetate Phosphate Buffer). Dissolution data were collected over 4 pH sectors (pH 2.0, 5.5, 6.5, and 7.4) for a total of 2 hours—30 minutes per sector, with UV spectra collected every 30 seconds. A stir speed of 225 rpm was used with a 10 mm path length probe. The IDR was calculated based on the surface area of the 3/6/8 mm disc recess used (28.3 mm2 surface area). XRPD analysis was performed on all samples, both after compression of the material into the disc recess, and post dissolution analysis to observe any change in form. XRPD diffractograms were collected on the Bruker C2.

The nature of data set [4]: Gravimetric vapour sorption (GVS) analysis. Format: physicochemical. As to conditions: for XRPD post GVS analysis: change of solid form after GVS; for GVS hygroscopicity: classification in words.
Data set [5] can be described thus: Storage for one week at 40° C./75% RH and 25° C./97% RH, XRPD. Format: physicochemical.
Data set [6] can be described thus: Competitive slurry / thermodynamic stability of solid forms. In kind it is physicochemical. As to conditions: competitive slurries at 5 and 50° C. in selected solvents, XRPD. The protocol: To these, 40 vol (1 mL) selected solvents was added and the material slurried at 5° C. or 50° C. for 72 hours on a HEL polyblock (500 rpm stirring). Solids were subsequently isolated by filtration and dried under suction prior to analysis by XRPD. In all but one experiment, Form 1 was the sole detectable phase by XRPD obtained after 72 hours.
These were mixed, and then aliquots (20 mg) of this mixture were dispensed into HPLC vials and 90 vol (1.8 mL) selected solvents added. Samples were slurried using a Polar Bear with 500 rpm magnetic stirring at 5 and 50° C. After 24 hours, aliquots were removed and analysed by XRPD. Experiment numbers: 01-10.
120 mg of both Compound 6 Pattern 1 and Compound 6 Pattern 4 were dispensed into a 20 mL vial. These were mixed, and then aliquots (20 mg) of this mixture was dispensed into HPLC vials and 90 vol selected solvents were added. Samples were slurried using a Polar Bear with 500 rpm magnetic stirring. Aliquots were removed after four days and analyzed by XRPD.

Setting [7] is: one week (7 days), scaled-up / characterised material.

plasma kallikrein, sequence (P03952 20-638, species assumed): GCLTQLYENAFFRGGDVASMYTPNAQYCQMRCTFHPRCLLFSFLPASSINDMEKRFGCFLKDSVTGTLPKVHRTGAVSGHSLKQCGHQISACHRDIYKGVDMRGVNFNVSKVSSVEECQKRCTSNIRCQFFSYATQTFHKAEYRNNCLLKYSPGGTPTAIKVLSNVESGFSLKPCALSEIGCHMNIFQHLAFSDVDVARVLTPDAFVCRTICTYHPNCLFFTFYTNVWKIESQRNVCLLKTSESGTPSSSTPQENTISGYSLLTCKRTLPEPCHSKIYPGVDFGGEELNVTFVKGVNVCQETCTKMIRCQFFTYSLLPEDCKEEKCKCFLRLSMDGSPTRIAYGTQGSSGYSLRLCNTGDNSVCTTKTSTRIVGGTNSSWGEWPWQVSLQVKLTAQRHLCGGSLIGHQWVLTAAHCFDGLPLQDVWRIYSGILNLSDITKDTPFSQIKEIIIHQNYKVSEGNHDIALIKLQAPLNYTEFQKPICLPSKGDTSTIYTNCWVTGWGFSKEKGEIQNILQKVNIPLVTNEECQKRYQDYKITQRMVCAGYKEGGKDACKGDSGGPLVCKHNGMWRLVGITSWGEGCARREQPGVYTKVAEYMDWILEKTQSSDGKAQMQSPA

In general, solubility refers to the concentration that dissolves in the medium under given conditions. What is called Solubility is the concentration that dissolves in the medium under given conditions. Broadly, the EC50 is the concentration giving half of the maximal effect. For `O=C(NCc1ncn2ccc(Cl)c(F)c12)c1cn(Cc2cn3cc(C4CC4)ccc3n2)nn1` [Compound 1, N-((7-chloro-8-fluoroimidazo[1,5-a]pyridin-1-yl)methyl)-1-((6-cyclopropylimidazo[1,2-a]pyridin-2-yl)methyl)-1H-1,2,3-triazole-4-carboxamide], the solubility is less than 10000 µg/mL in data set [1] (25 °C, organic solvent or mixture, all solvents assessed, Compound 1 as synthesized in Example 1, read-out: solubility at 25° C.); less than 10000 µg/mL in data set [1] (Acetone, 50 °C, organic solvent or mixture, read-out: Solubility at 50° C.); less than 10000 µg/mL in data set [1] (Acetone:H2O 9:1, 50 °C, organic solvent or mixture, read-out: Solubility at 50° C.); less than 10000 µg/mL in data set [1] (Acetonitrile, 50 °C, organic solvent or mixture, read-out: Solubility at 50° C.); less than 10000 µg/mL in data set [1] (Acetonitrile:H2O 1:1, 50 °C, aqueous with cosolvent or surfactant or cyclodextrin, read-out: Solubility at 50° C.); less than 10000 µg/mL in data set [1] (DCM, 50 °C, organic solvent or mixture, read-out: Solubility at 50° C.). Also, the solubility in data set [1] (DMAC, 50 °C, organic solvent or mixture, read-out: Solubility at 50° C.) is less than 10000 µg/mL; in data set [1] (DMF, 50 °C, organic solvent or mixture, read-out: Solubility at 50° C.) it was less than 10000 µg/mL; in data set [1] (DMSO, 50 °C, organic solvent or mixture, read-out: Solubility at 50° C.) it was more than 10000 µg/mL; in data set [1] (Ethanol, 50 °C, organic solvent or mixture, read-out: Solubility at 50° C.), less than 10000 µg/mL; in data set [1] (Ethyl acetate, 50 °C, organic solvent or mixture, read-out: Solubility at 50° C.) it was less than 10000 µg/mL; in data set [1] (IPA, 50 °C, organic solvent or mixture, read-out: Solubility at 50° C.), less than 10000 µg/mL. Also, the solubility was less than 10000 µg/mL in data set [1] (IPAC, 50 °C, organic solvent or mixture, read-out: Solubility at 50° C.); less than 10000 µg/mL in data set [1] (MEK, 50 °C, organic solvent or mixture, read-out: Solubility at 50° C.); less than 10000 µg/mL in data set [1] (MIBK, 50 °C, organic solvent or mixture, read-out: Solubility at 50° C.); less than 10000 µg/mL in data set [1] (MeOH:Chlorobenzene (1:1), 50 °C, organic solvent or mixture, read-out: Solubility at 50° C.); more than 10000 µg/mL in data set [1] (MeOH:DCM 1:3, 50 °C, organic solvent or mixture, read-out: Solubility at 50° C.); less than 10000 µg/mL in data set [1] (MeOH:H2O 9:1, 50 °C, organic solvent or mixture, read-out: Solubility at 50° C.). For the same compound, the solubility was less than 10000 µg/mL in data set [1] (MeOH:Toluene (1:1), 50 °C, organic solvent or mixture, read-out: Solubility at 50° C.); less than 10000 µg/mL in data set [1] (MeOH:anisole (1:1), 50 °C, organic solvent or mixture, read-out: Solubility at 50° C.); less than 10000 µg/mL in data set [1] (Methanol, 50 °C, organic solvent or mixture, read-out: Solubility at 50° C.); more than 10000 µg/mL in data set [1] (NMP, 50 °C, organic solvent or mixture, read-out: Solubility at 50° C.); less than 10000 µg/mL in data set [1] (TBME, 50 °C, organic solvent or mixture, read-out: Solubility at 50° C.); less than 10000 µg/mL in data set [1] (THF, 50 °C, organic solvent or mixture, read-out: Solubility at 50° C.). Moreover, the solubility is less than 10000 µg/mL in data set [1] (THF:H2O 9:1, 50 °C, organic solvent or mixture, read-out: Solubility at 50° C.); less than 10000 µg/mL in data set [1] (Toluene, 50 °C, organic solvent or mixture, read-out: Solubility at 50° C.); less than 10000 µg/mL in data set [1] (n-heptane, 50 °C, organic solvent or mixture, read-out: Solubility at 50° C.); less than 10000 µg/mL in data set [1] (t-BuOH, 50 °C, organic solvent or mixture, read-out: Solubility at 50° C.); less than 10000 µg/mL in data set [1] (t-BuOH:H2O 1:1, 50 °C, aqueous with cosolvent or surfactant or cyclodextrin, read-out: Solubility at 50° C.). For the same compound, the “Solubility at 50° C.” value in data set [1] (DMSO), in data set [1] (MeOH:DCM 1:3) and in data set [1] (NMP) was more than 10000 µg/mL throughout. In addition, the half-maximal effective concentration (EC50) in data set [2] was less than 1 nM.

Take `O=C(NCc1ncn2ccc(Cl)c(F)c12)c1cn(Cc2cn3cc(C4CC4)ccc3n2)nn1.O=C(O)C(=O)O` [Compound 6 Pattern 1]: in data set [3], the “IDR Sector 1 average (pH 2.0)” value was 866.8 μg/min/cm^2 and the “sector 1 IDR compared to free base form Compound 1 Form 1 / other forms” value is given as “increased sector 1 IDR”. In data set [3] (listed as Oxalate Pattern 1), the “IDR Sector 1 average (pH 2.0)” value was 866.8 μg/min/cm^2; the “IDR Sector 1 pH 2.0” value is 895.9 μg/min/cm^2 and 837.7 μg/min/cm^2; the “XRPD Analysis Post Dissolution” value is listed as “Partial conversion to Compound 1”. This compound also yielded a GVS mass increase in data set [4] (between 0 and 90% RH) of 0.6%. Further, in data set [4], the “XRPD post GVS analysis” value is on record as “no observed change” and the GVS hygroscopicity entry is recorded as “slightly hygroscopic”. Moreover, in data set [5] (setting [7]), the “Storage 25° C./97% RH, XRPD” value is recorded as “unchanged by XRPD” and the “Storage 40° C./75% RH, XRPD” value is on record as “unchanged by XRPD”. For the same compound, in data set [5] (one week, material isolated from salt/cocrystal screening experiments), the “Storage 40° C./75% RH, XRPD” value is recorded as “slightly changed”. For the same compound, the “thermodynamic stability relative to other solid forms” value in data set [6] (listed as Oxalate Pattern 1) is on record as “Less thermodynamically stable”.

For `O=C(NCc1ncn2ccc(Cl)c(F)c12)c1cn(Cc2cn3cc(C4CC4)ccc3n2)nn1` [Compound 1 Form 1, N-((7-chloro-8-fluoroimidazo[1,5-a]pyridin-1-yl)methyl)-1-((6-cyclopropylimidazo[1,2-a]pyridin-2-yl)methyl)-1H-1,2,3-triazole-4-carboxamide], in data set [3], the “IDR Sector 1 average (pH 2.0)” value is reported as 104.8 μg/min/cm^2; the “IDR Sector 1 pH 2.0” value was 104.3 μg/min/cm^2 and 105.2 μg/min/cm^2; the “XRPD Analysis Post Dissolution” value was “No change”. The “GVS increase in mass” value in data set [4] (RH range not given) is listed as 0.5%. For the same compound, in data set [4], the “XRPD post GVS analysis” value is on record as “Material unchanged by XRPD post GVS” and the GVS hygroscopicity entry is “slightly hygroscopic”. For the same compound, in data set [5] (setting [7]), the “Storage 25° C./97% RH, XRPD” value is listed as “Compound 1 Form 1” and the “Storage 40° C./75% RH, XRPD” value is “Compound 1 Form 1”. In data set [6], the “thermodynamic stability relative to other solid forms” value is “more thermodynamically stable than Compound 1 Form 3”. Further, the “thermodynamic stability relative to other solid forms” value in data set [6] (listed as Form 1) was “more thermodynamically stable than Form 2; also recorded: more thermodynamically stable polymorph; also recorded: polymorph most stable to typical storage and process conditions”.

For the compound `O=C(NCc1ncn2ccc(Cl)c(F)c12)c1cn(Cc2cn3cc(C4CC4)ccc3n2)nn1.O=C(O)C(=O)O` [Compound 6 Pattern 4], in data set [3] (listed as Oxalate Pattern 4), the “IDR Sector 1 average (pH 2.0)” value is recorded as 674.7 μg/min/cm^2; the “IDR Sector 1 pH 2.0” value is 692.8 μg/min/cm^2 and 656.6 μg/min/cm^2; the “XRPD Analysis Post Dissolution” value is “Partial conversion to Compound 1”. In data set [3], the “sector 1 IDR compared to free base form Compound 1 Form 1 / other forms” value is “increased sector 1 IDR”. In data set [4] (between 0 and 90% RH), the GVS mass loss worked out at 0.66%. Moreover, in data set [4], the “XRPD post GVS analysis” value is “unchanged” and the GVS hygroscopicity entry is “slightly hygroscopic”. In data set [5] (setting [7]), the “Storage 25° C./97% RH, XRPD” value is “unchanged by XRPD” and the “Storage 40° C./75% RH, XRPD” value is “unchanged by XRPD”. The “thermodynamic stability relative to other solid forms” value in data set [6] is given as “more thermodynamically stable of the two solvent-free oxalate salts; also recorded: more thermodynamically stable than Compound 6 Pattern 1”. Besides, the “thermodynamic stability relative to other solid forms” value in data set [6] (listed as Oxalate Pattern 4) is “More thermodynamically stable”.
